Measurements: ChEMBL document CHEMBL1148830, “Discovery and investigation of antiproliferative and apoptosis-inducing properties of new heterocyclic podophyllotoxin analogues accessible by a one-step multicomponent synthesis” (2007)
Active and inactive are the calls of the source. The rule behind the calls is not given here.

Assays:
[1] = test system: HeLa; assay: Growth inhibition of HeLa cells after 48 hrs by MTT assay; format: functional; conditions: Homo sapiens
[2] = Antiproliferative activity against human MCF7/AZ cells assessed as cell viability at 50 uM after 48 hrs by MTT assay; format: functional; conditions: read-out: Activity
[3] = test system: Lymphocyte; assay: Induction of apoptosis in human whole blood lymphocytes after 24 hrs by flow cytometric Annexin-V/propidium iodide assay; format: functional, cell-based
[4] = test system: HeLa; assay: Antiproliferative activity against HeLa cells assessed as cell viability at 50 uM after 48 hrs by MTT assay; format: functional; conditions: Homo sapiens, read-out: Activity
[5] = test system: Jurkat; assay: Induction of apoptosis in Jurkat cells assessed as cell viability at 5 uM after 48 hrs by flow cytometry Annexin-V/propidium iodide assay; format: functional; conditions: Homo sapiens, read-out: Activity
[6] = test system: Jurkat; assay: Antiproliferative activity against human Jurkat cells assessed as cell viability at 5 uM after 48 hrs by MTT assay; format: functional; conditions: read-out: Activity
[7] = test system: HeLa; assay: Antiproliferative activity against HeLa cells assessed as cell viability at 5 uM after 48 hrs by MTT assay relative to control; format: functional; conditions: Homo sapiens, read-out: Activity
[8] = test system: Jurkat; assay: Induction of apoptosis in Jurkat cells after 24 hrs by flow cytometric Annexin-V/propidium iodide assay; format: functional, cell-based; conditions: Homo sapiens
[9] = test system: Jurkat; assay: Antiproliferative activity against human Jurkat cells assessed as cell viability at 50 uM after 48 hrs by MTT assay; format: functional; conditions: read-out: Activity
[10] = Antiproliferative activity against human MCF7/AZ cells assessed as cell viability at 5 uM after 48 hrs by MTT assay relative to control; format: functional; conditions: read-out: Activity
[11] = test system: Jurkat; assay: Effect on apoptosis in Jurkat cells assessed as DNA laddering after 24 hrs at 1 uM; format: functional, cell-based; conditions: Homo sapiens
[12] = test system: Jurkat; assay: Induction of apoptosis in Jurkat cells assessed as cell viability at 50 uM after 48 hrs by flow cytometry Annexin-V/propidium iodide assay; format: functional; conditions: Homo sapiens, read-out: Activity

COc1cc([C@@H]2c3cc4c(cc3[C@@H](O[C@@H]3O[C@@H]5CO[C@@H](C)O[C@H]5[C@H](O)[C@H]3O)[C@H]3COC(=O)[C@H]23)OCO4)cc(OC)c1O [ETOPOSIDE]
GI50 [1]: 8 µM | viability at 50 µM [2]: 57% | Activity [3]: inactive | viability at 50 µM [4]: 15% | viability at 5 µM [5]: 4% | viability at 5 µM [6]: 75% | viability at 5 µM [7]: 91% | Activity [8]: Active | viability at 50 µM [9]: 50% | viability at 5 µM [10]: 76% | Activity [11]: inactive | viability at 50 µM [12]: 61%
